Values after ≈ are worked out from the molar mass of the structure shown.
Assays:
[1] = tested on: Acinetobacter baumannii NCTC 13420; test: MIC, broth microdilution (CLSI) versus planktonic bacteria; type: cell-based; details: NCTC13420; Acinetobacter baumannii NCTC 13420; 16-20 h; mode of three independent experiments; read-out: MIC, Ab NCTC 13420
[2] = tested on: Acinetobacter baumannii ATCC 19606; test: as above; type: cell-based; details: ATCC19606; Acinetobacter baumannii ATCC 19606; 16-20 h; mode of three independent experiments; read-out: MIC, Ab ATCC 19606
[3] = tested on: Enterobacter cloacae NCTC 13406; test: as above; type: cell-based; details: NCTC13406; Enterobacter cloacae NCTC 13406; 16-20 h; mode of three independent experiments; read-out: MIC, Ecl NCTC 13406
[4] = tested on: Escherichia coli ATCC 25922; test: as above; type: cell-based; details: ATCC25922; Escherichia coli ATCC 25922; 16-20 h; mode of three independent experiments; read-out: MIC, Ec ATCC 25922
[5] = tested on: E. coli ATCC BAA-2452; test: as above; type: cell-based; details: Escherichia coli ATCC BAA-2452; 16-20 h; mode of three independent experiments; read-out: MIC, Ec ATCC BAA 2452
[6] = tested on: E. coli NCTC 13476; test: as above; type: cell-based; details: NCTC13476; Escherichia coli NCTC 13476; 16-20 h; mode of three independent experiments; read-out: MIC, Ec NCTC 13476
[7] = tested on: E. coli MG1655; test: as above; type: cell-based, Escherichia coli; details: Escherichia coli, MG1655, read-out: MIC, Ec MG1655 WT
[8] = tested on: Haemophilus influenzae ATCC 49247; test: as above; type: cell-based; details: ATCC49247; Haemophilus influenzae ATCC 49247; 16-20 h; mode of three independent experiments; read-out: MIC, Hi ATCC 49247
[9] = tested on: Pseudomonas aeruginosa ATCC 27853; test: as above; type: cell-based; details: ATCC27853; Pseudomonas aeruginosa ATCC 27853; 16-20 h; mode of three independent experiments; read-out: MIC, Pa ATCC 27853
[10] = tested on: Staphylococcus aureus ATCC 29213; test: as above; type: cell-based; details: ATCC29213; Staphylococcus aureus ATCC 29213; 16-20 h; mode of three independent experiments; read-out: MIC, Sa ATCC 29213
[11] = tested on: Streptococcus pneumoniae ATCC 49619; test: as above; type: cell-based; details: ATCC49619; Streptococcus pneumoniae ATCC 49619; 16-20 h; mode of three independent experiments; read-out: MIC, Sp ATCC 49619
[12] = tested on: E. coli MG1655 S83L; type: cell-based, Escherichia coli; details: compared to the isogenic parent strain E. coli MG1655; S83L mutation on DNA gyrase subunit GyrA
[13] = tested on: E. coli MG1655 D87G; type: cell-based, Escherichia coli; details: compared to the isogenic parent strain E. coli MG1655; D87G mutation on DNA gyrase subunit GyrA
[14] = tested on: human hepatic cell line (HepG2 ATCC HB-8065); test: Human cell viability assay (CellTiter-Glo); details: Homo sapiens, HepG2, 24 h, read-out: IC50 (μg/mL) HepG2

Row | Structure (SMILES) | MIC [1] | MIC [2] | MIC [3] | MIC [4] | MIC [5] | MIC [6] | MIC [7] | MIC [8] | MIC [9] | MIC [10] | MIC [11] | Fold increase in MIC, E. coli MG1655 S83L [12] | Fold increase in MIC, E. coli MG1655 D87G [13] | IC50 [14]
1 | O=C1COc2ccc(N3C(=O)O[C@@H]4C[C@@H](NCCn5c(=O)cnc6cc(F)c(F)cc65)CC[C@@H]43)nc2N1 [Compound 22, 1-(2-{[(3aS,6S,7aR)-2-oxo-3-{3-oxo-2H,3H,4H-pyrido[3,2-b][1,4]oxazin-6-yl}-octahydro-1,3-benzoxazol-6-yl]amino}ethyl)-6,7-difluoro-1,2-dihydroquinoxalin-2-one] | < 1 µg/mL | < 1 µg/mL | < 1 µg/mL | < 1 µg/mL | < 1 µg/mL | < 1 µg/mL | < 1 µg/mL | < 1 µg/mL | 1 to 10 µg/mL (≈ 1.95 to 19.5 µM) | < 1 µg/mL | < 1 µg/mL | 2 fold | 2 fold | –
2 | O=C1COc2ccc(N3C(=O)O[C@H]4C[C@@H](NCCn5c(=O)ccc6ccc(OC(F)F)cc65)CC[C@@H]43)nc2N1 [Compound 101, 1-(2-{[(3aS,6S,7aS)-2-oxo-3-{3-oxo-2H,3H,4H-pyrido[3,2-b][1,4]oxazin-6-yl}-octahydro-1,3-benzoxazol-6-yl]amino}ethyl)-7-(difluoromethoxy)-1,2-dihydro quinolin-2-one] | < 1 µg/mL | < 1 µg/mL | 1 to 10 µg/mL (≈ 1.85 to 18.5 µM) | < 1 µg/mL | < 1 µg/mL | < 1 µg/mL | < 1 µg/mL | – | 1 to 10 µg/mL (≈ 1.85 to 18.5 µM) | < 1 µg/mL | < 1 µg/mL | 1 fold | 1 fold | 10 to 100 µg/mL (≈ 18.5 to 185 µM)
3 | O=C1COc2cnc(N3C(=O)O[C@@H]4C[C@H](NCCn5c(=O)cnc6cc(F)c(F)cc65)CC[C@H]43)nc2N1 [Compound 38, 1-(2-{[(3aR,6R,7aR)-2-oxo-3-{7-oxo-6H,7H,8H-pyrimido[5,4-b][1,4]oxazin-2-yl}-octahydro-1,3-benzoxazol-6-yl]amino}ethyl)-6,7-difluoro-1,2-dihydroquinoxalin-2-one] | 1 to 10 µg/mL (≈ 1.95 to 19.5 µM) | 1 to 10 µg/mL (≈ 1.95 to 19.5 µM) | < 1 µg/mL | < 1 µg/mL | 1 to 10 µg/mL (≈ 1.95 to 19.5 µM) | 1 to 10 µg/mL (≈ 1.95 to 19.5 µM) | < 1 µg/mL | < 1 µg/mL | 1 to 10 µg/mL (≈ 1.95 to 19.5 µM) | < 1 µg/mL | < 1 µg/mL | 2 fold | – | 10 to 100 µg/mL (≈ 19.5 to 195 µM)
4 | N#Cc1cccc(-c2cccc(CN[C@H]3CC[C@H]4[C@H](C3)OC(=O)N4c3ccc4c(n3)NC(=O)CO4)c2)n1 [Compound 57, 6-[3-({[(3aS,6S,7aS)-2-oxo-3-{3-oxo-2H,3H,4H-pyrido[3,2-b][1,4]oxazin-6-yl}-octahydro-1,3-benzoxazol-6-yl]amino}methyl)phenyl]pyridine-2-carbonitrile] | < 1 µg/mL | < 1 µg/mL | 1 to 10 µg/mL (≈ 2.01 to 20.1 µM) | < 1 µg/mL | 1 to 10 µg/mL (≈ 2.01 to 20.1 µM) | 1 to 10 µg/mL (≈ 2.01 to 20.1 µM) | < 1 µg/mL | < 1 µg/mL | – | < 1 µg/mL | < 1 µg/mL | 1 fold | 1 fold | –
5 | O=C1COc2ccc(N3C(=O)O[C@H]4C[C@@H](NCCn5c(=O)ccc6ncc(OC(F)F)cc65)CC[C@@H]43)nc2N1 [Compound 98, 1-(2-{[(3aS,6S,7aS)-2-oxo-3-{3-oxo-2H,3H,4H-pyrido[3,2-b][1,4]oxazin-6-yl}-octahydro-1,3-benzoxazol-6-yl]amino}ethyl)-7-(difluoromethoxy)-1,2-dihydro-1,5-naphthyridin-2-one] | < 1 µg/mL | < 1 µg/mL | 1 to 10 µg/mL (≈ 1.84 to 18.4 µM) | < 1 µg/mL | < 1 µg/mL | 1 to 10 µg/mL (≈ 1.84 to 18.4 µM) | < 1 µg/mL | < 1 µg/mL | 1 to 10 µg/mL (≈ 1.84 to 18.4 µM) | < 1 µg/mL | – | 1 fold | 1 fold | > 100 µg/mL
6 | O=C1COc2ccc(N3C(=O)O[C@@H]4C[C@H](NCCn5c(=O)cnc6cc(F)c(F)cc65)CC[C@H]43)nc2N1 [Compound 70, 1-(2-{[(3aR,6R,7aR)-2-oxo-3-{3-oxo-2H,3H,4H-pyrido[3,2-b][1,4]oxazin-6-yl}-octahydro-1,3-benzoxazol-6-yl]amino}ethyl)-6,7-difluoro-1,2-dihydroquinoxalin-2-one] | < 1 µg/mL | – | < 1 µg/mL | < 1 µg/mL | < 1 µg/mL | < 1 µg/mL | < 1 µg/mL | < 1 µg/mL | < 1 µg/mL | < 1 µg/mL | < 1 µg/mL | 2 fold | 4 fold | 10 to 100 µg/mL (≈ 19.5 to 195 µM)
7 | COc1ccc2ccc(=O)n(CCCN[C@H]3CC[C@H]4[C@H](C3)OC(=O)N4c3ccc4c(n3)NC(=O)CO4)c2n1 [Compound 83, 1-(3-{[(3aS,6S,7aS)-2-oxo-3-{3-oxo-2H,3H,4H-pyrido[3,2-b][1,4]oxazin-6-yl}-octahydro-1,3-benzoxazol-6-yl]amino}propyl)-7-methoxy-1,2-dihydro-1,8-naphthyridin-2-one] | < 1 µg/mL | < 1 µg/mL | < 1 µg/mL | < 1 µg/mL | < 1 µg/mL | < 1 µg/mL | – | < 1 µg/mL | 1 to 10 µg/mL (≈ 1.92 to 19.2 µM) | < 1 µg/mL | < 1 µg/mL | – | – | 10 to 100 µg/mL (≈ 19.2 to 192 µM)
8 | N#Cc1cccc(-c2cccc(CN[C@H]3CC[C@H]4[C@H](C3)OC(=O)N4c3ccc4c(n3)NC(=O)CO4)n2)c1 [Compound 105, 3-[6-({[(3aS,6S,7aS)-2-oxo-3-{3-oxo-2H,3H,4H-pyrido[3,2-b][1,4]oxazin-6-yl}-octahydro-1,3-benzoxazol-6-yl]amino}methyl)pyridin-2-yl]benzonitrile] | < 1 µg/mL | < 1 µg/mL | 1 to 10 µg/mL (≈ 2.01 to 20.1 µM) | < 1 µg/mL | < 1 µg/mL | 1 to 10 µg/mL (≈ 2.01 to 20.1 µM) | < 1 µg/mL | < 1 µg/mL | 1 to 10 µg/mL (≈ 2.01 to 20.1 µM) | < 1 µg/mL | – | 1 fold | 1 fold | 10 to 100 µg/mL (≈ 20.1 to 201 µM)
9 | NCCOc1ccc2ccc(=O)n(CCN[C@@H]3CC[C@@H]4[C@@H](C3)OC(=O)N4c3ccc4c(n3)NC(=O)CO4)c2c1 [Compound 23, 1-(2-{[(3aR,6R,7aR)-2-oxo-3-{3-oxo-2H,3H,4H-pyrido[3,2-b][1,4]oxazin-6-yl}-octahydro-1,3-benzoxazol-6-yl]amino}ethyl)-7-(2-aminoethoxy)-1,2-dihydroquinolin-2-one] | 10 to 100 µg/mL (≈ 18.7 to 187 µM) | – | > 100 µg/mL | < 1 µg/mL | 1 to 10 µg/mL (≈ 1.87 to 18.7 µM) | 10 to 100 µg/mL (≈ 18.7 to 187 µM) | 1 to 10 µg/mL (≈ 1.87 to 18.7 µM) | > 100 µg/mL | 1 to 10 µg/mL (≈ 1.87 to 18.7 µM) | < 1 µg/mL | 1 to 10 µg/mL (≈ 1.87 to 18.7 µM) | 0.5 fold | 0.5 fold | > 100 µg/mL
10 | O=C1COc2ccc(N3C(=O)O[C@@H]4C[C@H](NCCn5c(=O)cnc6ccc(F)cc65)CC[C@H]43)nc2N1 [Compound 86, 1-(2-{[(3aR,6R,7aR)-2-oxo-3-{3-oxo-2H,3H,4H-pyrido[3,2-b][1,4]oxazin-6-yl}-octahydro-1,3-benzoxazol-6-yl]amino}ethyl)-7-fluoro-1,2-dihydroquinoxalin-2-one] | < 1 µg/mL | < 1 µg/mL | < 1 µg/mL | < 1 µg/mL | < 1 µg/mL | < 1 µg/mL | – | < 1 µg/mL | 1 to 10 µg/mL (≈ 2.02 to 20.2 µM) | < 1 µg/mL | < 1 µg/mL | – | – | 10 to 100 µg/mL (≈ 20.2 to 202 µM)
11 | COc1cc2c(ccc(=O)n2CCN[C@H]2CC[C@H]3[C@H](C2)OC(=O)N3c2ccc3c(n2)NC(=O)CO3)cn1 [Compound 62, 1-(2-{[(3aS,6S,7aS)-2-oxo-3-{3-oxo-2H,3H,4H-pyrido[3,2-b][1,4]oxazin-6-yl}-octahydro-1,3-benzoxazol-6-yl]amino}ethyl)-7-methoxy-1,2-dihydro-1,6-naphthyridin-2-one] | < 1 µg/mL | 1 to 10 µg/mL (≈ 1.97 to 19.7 µM) | – | < 1 µg/mL | 1 to 10 µg/mL (≈ 1.97 to 19.7 µM) | 1 to 10 µg/mL (≈ 1.97 to 19.7 µM) | 1 to 10 µg/mL (≈ 1.97 to 19.7 µM) | 1 to 10 µg/mL (≈ 1.97 to 19.7 µM) | 10 to 100 µg/mL (≈ 19.7 to 197 µM) | < 1 µg/mL | < 1 µg/mL | 1 fold | 0.5 fold | –

From US10487093B2, “Heterocyclic compounds, in particular 2-oxo-4,4,5,5,6,6,7,7-octahydrobenzoxazole derivatives, and their use as antibacterial compounds” (priority 2016, dated 2019)
